Values belong to the compound of their own block, whether it stands above or below them.
Assays:
[1] = system: GR purified from a day 14 culture of cell line B; experiment: DTNB reductase activity of 2'5'-ADP column fractions from cell line B, GR; assay type: biochemical, Chinese Hamster; conditions: 100 μM 2-AAPA, fractions B1-C2, depending on the fraction
Method: Reductases were purified from cell samples to verify the specificity of reductase inhibitors. A day 14 culture of mAb B (IgG antibody produced by CHO cell line B CHO-K1SV) was pelleted by centrifugation, washed once with PBS and re-suspended in 50 mM tris buffer, pH 7.5. The solution was homogenized and filtered at 0.2 μm prior to loading onto a column of 2′5′-ADP Sepharose 4B resin. The reductases were eluted using a linearly increasing gradient of 0 to 0.3 mM NADP^+ in the same tris buffer (Yadav, et al., Parasitol. Int., 62:193-198, 2013). The reductase activity of the collected fractions was determined using the assay described in Example 3. Additionally, western blot analysis was used to detect TrxR1 and GR in the collected fractions.
The reductase-specific inhibitors were evaluated above using purified recombinant mammalian enzymes from rat and human. […] The added activity from the two systems was approximately equal to the total activity detected in the absence of an inhibitor for each fraction. […] That is, if the reductase inhibitors were non-specifically inhibiting both enzymatic systems, the added reductase activity would have been […] than the reductase activity detected without any added inhibitor. […] The fractions with reductase activity were pooled and further evaluated at the inhibitor concentrations assayed in the antibody reduction assay.

glutathione system = experiment: Reductase activity assay, day 14 culture samples, glutathione system; assay type: biochemical, Chinese Hamster; conditions: day 14, 100 μM 2-AAPA
Method: The total reductase activity was determined in the absence of any inhibitor. […] Thus, the difference in activity between a sample with ATG, and a sample without any inhibitor, indicates the amount of reductase activity contributed the thioredoxin system. […] Thus, the difference in reductase activity between a sample with 2-AAPA, and a sample without any inhibitor, indicates the amount of reductase activity contributed by the glutathione system. Although ATG and 2-AAPA are provided as exemplary specific inhibitors, other specific inhibitors discussed above can be employed in this assay instead of ATG and 2-AAPA.
(§1) Briefly, culture samples were thawed on ice. […] The samples were then allowed to incubate 5 minutes.
(§2) Activity of the reductases was calculated as follows. […] The activity was then calculated by the following equation: […]
The reductase activities of the thioredoxin and glutathione systems were evaluated in day 14 culture samples of the same CHO cell lines A, B, C, and D, using the previously evaluated specific inhibitors 2-AAPA and ATG at 100 μM and 0.5 μM respectively. Data in FIG. 6A were normalized to viable cell density. Cell lines A, B, and C were described in Example 6, above. Cell line D is the cell line CHO CAT-S, and is stably transfected to produce an IgG1 mAb (mAb D).

recombinant TrxR1/Trx1 = target: T1, recombinant TrxR1/Trx1 (Rattus norvegicus, UniProt O89049); experiment: DTNB reductase activity assay, recombinant TrxR1/Trx1; conditions: 2-AAPA 10 μM to 200 μM
T1 sequence (O89049 1-499): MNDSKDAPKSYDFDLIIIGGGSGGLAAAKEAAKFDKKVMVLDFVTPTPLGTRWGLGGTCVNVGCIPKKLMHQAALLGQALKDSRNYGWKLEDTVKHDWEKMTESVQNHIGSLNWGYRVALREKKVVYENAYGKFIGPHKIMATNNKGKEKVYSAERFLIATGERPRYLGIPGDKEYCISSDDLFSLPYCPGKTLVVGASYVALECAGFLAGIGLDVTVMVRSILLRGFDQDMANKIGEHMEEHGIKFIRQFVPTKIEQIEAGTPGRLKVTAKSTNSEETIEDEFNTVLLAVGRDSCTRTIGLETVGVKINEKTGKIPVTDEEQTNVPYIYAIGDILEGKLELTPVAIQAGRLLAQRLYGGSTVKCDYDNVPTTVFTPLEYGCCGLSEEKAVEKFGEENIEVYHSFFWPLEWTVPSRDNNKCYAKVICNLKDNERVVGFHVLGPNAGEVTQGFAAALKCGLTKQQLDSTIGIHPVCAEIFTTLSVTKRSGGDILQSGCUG
Method: This assay allows determination of the total reductase activity in a culture sample, as well as determination of the individual contribution made by thioredoxin reductase and glutathione reductase to the total reductase activity of the sample. In this assay, culture samples (cells+media) from 3 L bioreactors were stored frozen until the end of the run, after which the samples were centrifuged to remove the cell pellet then the resulting supernatant was diluted 20-fold into 100 mM tris buffer, pH 7.4, containing 0.4 mM NADPH, 0.15 mM oxidized glutathione, and 3 mM DTNB with the indicated concentration of specific reductase inhibitor. Addition of the enzyme specific inhibitors to the samples allowed the total reductase activity to be determined as well as the individual activity from the thioredoxin and glutathione systems. Reductase activity was monitored by spectroscopic measurement of the increase in absorbance at a wavelength of 412 nm. […] The detected increase in absorbance at this wavelength is caused by the reduction of DTNB (Arnér, ESJ, Biochim. Biophys. Acta—Gen. Subj., 1790:495-526, 2009).
Briefly, culture samples were thawed on ice. […] The absorbance at a wavelength of 412 nm was determined every 30 seconds, for 20 minutes.
Activity of the reductases was calculated as follows. The change in absorbance per minute (Δ412) for each well was determined. […]

[2] = target: T2, recombinant mammalian GR/GSSG (Homo sapiens, UniProt P00390); experiment: Reduction of purified mAb B by recombinant GR/GSSG, capillary electrophoresis; assay type: biochemical
T2 construct: purchased Abcam
T2 sequence (P00390 44-522): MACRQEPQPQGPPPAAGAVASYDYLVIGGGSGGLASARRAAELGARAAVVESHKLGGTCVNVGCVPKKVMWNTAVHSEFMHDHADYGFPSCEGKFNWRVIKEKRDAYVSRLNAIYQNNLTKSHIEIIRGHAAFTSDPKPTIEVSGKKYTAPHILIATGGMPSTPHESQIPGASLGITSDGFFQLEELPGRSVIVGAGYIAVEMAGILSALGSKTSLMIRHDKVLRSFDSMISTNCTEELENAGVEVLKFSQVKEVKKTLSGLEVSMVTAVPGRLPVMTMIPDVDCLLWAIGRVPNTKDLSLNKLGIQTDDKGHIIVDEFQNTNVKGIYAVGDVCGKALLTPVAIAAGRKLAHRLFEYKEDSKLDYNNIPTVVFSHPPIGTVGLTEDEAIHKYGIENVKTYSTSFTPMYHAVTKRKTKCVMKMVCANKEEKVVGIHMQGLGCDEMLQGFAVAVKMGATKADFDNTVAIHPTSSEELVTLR
Method: (§3) Antibody reduction in cell culture supernatant samples was measured by detecting the presence of reduced species via capillary electrophoresis using standard procedures on a 2100 Bioanalyzer system (Agilent Technologies, Santa Clara, Calif.). Samples were diluted 1-6 fold depending on titer and analyzed under non-reducing conditions following 2100 Bioanalyzer standard protocols. Supernatant samples from 3 L bioreactors were stored frozen until all samples had been acquired and were ready for analysis. Samples were thawed on ice and analyzed immediately to evaluate the amount of reduced antibody in the reactor on each day of the run.
Using the same approach with recombinant mammalian enzymes, the glutathione system was evaluated by spiking mAb B into five solutions containing: 1) no enzyme, 2) 1 mM GSSG (oxidized glutathione), 3) 0.2 μM GR (glutathione reductase), 4) 0.2 μM GR with 1 mM GSSG, and 5) 0.02 μM GR with 1 mM GSSG. […] The results indicated a minimal mAb B reduction in the solutions containing GSSG alone. This is the result of an impurity in the GSSG. […] was reduced in the solutions containing both GR and GSSG.
(§4) To confirm that the activity from a particular reductase system can translate into reduced antibody, a second method was developed to determine the impact of each reductase system on antibody reduction. The principle of the reduction assay is similar to the reductase activity assay described above. The percent of protein reduction without an inhibitor was compared to the percent of protein reduction in the presence of specific inhibitors for GR or TrxR1. In this assay, purified mAb B was spiked into solutions containing recombinant mammalian TrxR1/Trx1 or recombinant mammalian GR/GSSG and stored in an oxygen-free environment overnight. The percent of reduced mAb B antibody was evaluated using capillary electrophoresis, as set forth above.

GR/GSSG = target: T3, GR/GSSG (Homo sapiens, UniProt P00390); experiment: DTNB reductase activity assay, recombinant GR/GSSG; assay type: biochemical; conditions: 2-AAPA at 100 μM and higher
T3 construct: purchased Abcam
T3 sequence (P00390 44-522): T2 sequence (P00390 44-522)
Method: as §1, §2

[3] = system: TrxR1 purified from CHO cell cultures; experiment: mAb B reduction by pooled CHO fractions with NADPH and Trx1; assay type: biochemical, Chinese Hamster; conditions: 3 μM Cu^2+ or 100 μM ATG, overnight room temperature
Method: (§5) Purified mAb B was spiked into several solutions containing different combinations of the pooled fractions (PF), recombinant Trx1, GSSG, NADPH, ATG, and Cu^2+. The solutions were incubated at room temperature overnight and the amount of intact antibody remaining was determined by capillary electrophoresis according to the protocol described above. In the first set of samples, purified mAb B was spiked into the pooled fractions with, and without, NADPH.
The third set of solutions contained the pooled enzymes, NADPH, Trx1, and either no inhibitor, 3 μM Cu^2+, or 100 μM ATG. […] In the final sample as a control, mAb B was spiked into a solution containing NADPH, Trx1, and GSSG.

[4] = system: GR isolated from CHO cell culture; experiment: mAb B reduction by pooled CHO fractions with NADPH and GSSG; assay type: biochemical, Chinese Hamster; conditions: 3 μM Cu^2+ or 100 μM ATG, overnight room temperature
Method: as §5
In the second set of samples, purified mAb B was spiked into solutions containing the pooled enzymes, NADPH, GSSG, and either no inhibitor, 3 μM Cu^2+, or 100 μM ATG. […] This solution contained GR, GSSG, and NADPH, which are needed for the glutathione system.

[5] = target: T4, recombinant mammalian TrxR1/Trx1 (Rattus norvegicus, UniProt O89049); experiment: Reduction of purified mAb B by recombinant TrxR1/Trx1, capillary electrophoresis; assay type: biochemical, human (Trx1)
T4 construct: purchased Cayman Chemical (TrxR1); Abcam (Trx1)
T4 sequence (O89049 1-499): T1 sequence (O89049 1-499)
Method: as §3
The role of each enzymatic system in antibody reduction was evaluated by determining the conditions under which these reductase systems cause antibody reduction. Using purified recombinant mammalian reductases, the thioredoxin system was evaluated by spiking purified mAb B into five solutions containing: 1) no enzymes, 2) 1 μM TrxR1, 3) 0.1 μM TrxR1, 4) […], and 5) 0.1 μM TrxR1+2.5 μM Trx1. All samples contained 0.4 mM NADPH and were stored at room temperature overnight. Digital gel-like images were obtained from microchip-based capillary electrophoresis analysis.
as §4

[6] = Antibody reduction potential assay (Vacuum/GX); assay type: physicochemical; conditions: EDTA 9.5, 19, 38 mM or Cystine 4 and 8 mM
Method: Bioreactor samples (1 mL) were obtained daily and centrifuged at 3000-4000 RPM and the supernatant was frozen immediately at −80° C. On the day prior to the assay, the samples were removed from −80° C. storage, thawed, and placed in a vacuum chamber at room temperature overnight to induce reduction of the monoclonal antibody without the interference of oxygen. After the vacuum hold, the samples were analyzed for protein fragmentation under non-reducing conditions using a BioAnalyzer system (Agilent Technologies) or a LABCHIP® GXII system (PerkinElmer) to detect antibody fragments resulting from the breakage of the antibody's interchain disulfide bonds. […]
Samples were stored frozen until analyzed. […] After being denatured and the free thiols being capped by NEM, the samples were analyzed using a Perkin Elmer Labchip® GXII (Perkin Elmer, Waltham, Mass.) to perform size fractionation and quantification. Using the Labchip® GXII, the protein and fragments were detected by laser-induced fluorescence and translated into gel-like images (bands) and electropherograms (peaks).
Reduction potential, i.e. the potential of the molecule to be reduced under anaerobic condition, was measured by subjecting samples to vacuum analysis as described above followed addition of non-reducing sample buffer. […]

[7] = Antibody aggregation analysis (HP-SEC); assay type: physicochemical; conditions: EDTA 9.5, 19, 38 mM or Cystine 4 and 8 mM
Method: The percent of antibody aggregates was determined using standard size exclusion chromatography (HP-SEC) methods. An Agilent 1200 series system was used with a Tosoh Bioscience TSKgel G3000SW XL column (Tosoh Bioscience LLC, King of Prussia, Pa.) (7.8 mm×300 mm) at 1 mL/min flow rate using a mobile phase buffer of 0.1 M sodium phosphate, 0.1 M sodium sulfate, pH 6.8. The absorbance chromatography at 280 nm was used to quantify the results.

- share of total reductase activity caused by the glutathione system (glutathione system; cell line A): 70%
- share of total reductase activity caused by the glutathione system (glutathione system; cell line B): 45%
- share of total reductase activity caused by the glutathione system (glutathione system; cell line C): 5%
- share of total reductase activity caused by the glutathione system (glutathione system; cell line D): 45%
- effect on the reductase activity of TrxR1/Trx1 solutions (recombinant TrxR1/Trx1): minimal effect
- behaviour of 2-AAPA in the antibody reduction assay ([2]; same method as for ATG): directly caused antibody reduction
- GR/GSSG activity (GR/GSSG): completely inhibiting
Structure (SMILES): CC(=O)NC(CSC(=S)Nc1ccc(NC(=S)SCC(NC(C)=O)C(=O)O)cc1)C(=O)O (stereo not shown) [2-AAPA, 2-Acetylamino-3-[4-(2-acetylamino-2-carboxyethylsulfanylthiocarbonyl-amino)phenylthiocarbamoylsulfanyl]propionic acid]
- share of reductase activity from glutathione reductase, determined with the inhibitor [1]: 25-40%

Structure (SMILES): O=S(=O)([O-])[O-].[Cu+2] [Cu^2+, copper (II) sulfate]
- antibody reduction caused by GR/GSSG ([2]; 3 μM Cu^2+): almost completely inhibited
- antibody reduction in samples containing GR/GSSG ([2]; Cu^2+ 3-100 μM): prevented antibody reduction
- antibody reduction in pooled enzymes, NADPH, Trx1 [3]: marginally prevented antibody reduction
- antibody reduction in pooled enzymes, NADPH, GSSG [4]: completely inhibited all antibody reduction
- intact antibody remaining in the TrxR1/Trx1 sample ([5]; 3 μM Cu^2+): 20%
- antibody reduction from the thioredoxin system ([5]; Cu^2+ 3-100 μM): only partially inhibited

- reduction potential at the time of harvest of sheared mAb E material [6]: no reduction potential
- aggregation of sheared mAb E material after 8 days at 2-8° C. [7]: limited the extent of mAb aggregation
Structure (SMILES): O=C(O)CN(CCN(CC(=O)O)CC(=O)O)CC(=O)O [EDTA, ethylenediamine tetraacetic acid]

Reference: US20190112357A1, “PREVENTION OF PROTEIN DISULFIDE BOND REDUCTION” (MedImmune, LLC, priority 2016, published 2019)
